Results published in publication PMC10023787, “Trio-pharmacophore DNA-encoded chemical library for simultaneous selection of fragments and linkers” (Nature Communications, 2023).
Like-named read-outs stand apart in the source and are kept apart here.

Experiments:
MMP-2 = target: T1, MMP-2 (Homo sapiens, UniProt P08253); assay: MMP-2 inhibition assay (fluorogenic peptide substrate); format: biochemical
T1 construct: purchased Sino Biological 10082-HNAH
T1 sequence (P08253 110-660): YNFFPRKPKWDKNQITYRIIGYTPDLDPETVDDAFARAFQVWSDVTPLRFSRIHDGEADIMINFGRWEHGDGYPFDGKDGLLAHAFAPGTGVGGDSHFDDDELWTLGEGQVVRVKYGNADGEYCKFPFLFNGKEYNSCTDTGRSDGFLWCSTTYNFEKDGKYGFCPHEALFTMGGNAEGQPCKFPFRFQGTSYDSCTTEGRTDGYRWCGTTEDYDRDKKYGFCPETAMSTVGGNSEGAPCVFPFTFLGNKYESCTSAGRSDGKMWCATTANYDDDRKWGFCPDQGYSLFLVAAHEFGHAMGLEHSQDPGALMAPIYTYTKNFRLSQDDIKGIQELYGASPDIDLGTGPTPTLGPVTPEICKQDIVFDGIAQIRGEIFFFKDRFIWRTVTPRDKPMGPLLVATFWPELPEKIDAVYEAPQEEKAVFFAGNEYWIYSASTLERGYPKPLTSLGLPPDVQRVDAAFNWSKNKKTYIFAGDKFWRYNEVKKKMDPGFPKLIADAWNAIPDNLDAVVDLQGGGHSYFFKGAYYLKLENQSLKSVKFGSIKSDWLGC
Outline: (§1)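 Human proMMP-2 and proMMP-9 were activated with 1 mM APMA for 2 h at 37 °C, then used at 6.5 nM (MMP-2) or 10 nM (MMP-9) final in Tris/NaCl/CaCl2/Brij 35 buffer, pH 7.5. After 30 min preincubation with compound at RT, 25 μM FRET peptide substrate was added and fluorescence (ex 280/em 360 nm) followed for 30 min. IC50 came from logistic fits of Vmax.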

MMP-9 = target: T2, MMP-9 (Homo sapiens, UniProt P14780); assay: MMP-9 inhibition assay (fluorogenic peptide substrate); format: biochemical; parameters: remaining enzyme activity (% of control): scale not given here
T2 construct: purchased Sino Biological 10327-HNAH
T2 sequence (P14780 107-707 limits assumed): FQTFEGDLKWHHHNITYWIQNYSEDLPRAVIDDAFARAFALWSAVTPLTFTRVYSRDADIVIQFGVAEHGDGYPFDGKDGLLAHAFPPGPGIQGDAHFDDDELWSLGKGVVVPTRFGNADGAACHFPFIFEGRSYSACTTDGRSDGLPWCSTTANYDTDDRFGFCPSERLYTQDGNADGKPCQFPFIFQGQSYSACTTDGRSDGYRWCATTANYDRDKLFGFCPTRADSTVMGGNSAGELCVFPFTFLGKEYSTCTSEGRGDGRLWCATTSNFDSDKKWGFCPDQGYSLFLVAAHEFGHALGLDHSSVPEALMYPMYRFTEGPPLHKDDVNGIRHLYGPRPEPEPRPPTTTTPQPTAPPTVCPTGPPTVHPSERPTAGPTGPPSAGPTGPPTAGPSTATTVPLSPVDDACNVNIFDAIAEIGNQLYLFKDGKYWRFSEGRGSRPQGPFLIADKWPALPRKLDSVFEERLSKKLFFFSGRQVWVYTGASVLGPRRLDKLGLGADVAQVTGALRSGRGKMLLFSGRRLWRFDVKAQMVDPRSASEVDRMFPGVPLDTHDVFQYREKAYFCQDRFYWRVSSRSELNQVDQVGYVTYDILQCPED
Outline: as §1

[1] = MMP-2; concentration 1219.00 µM
[2] = mean ± SE; n.d: not detected; Fig. 5d unit inferred, µM; read-out: IC50
[3] = MMP-9; concentration 1219.00 µM
[4] = Figure 5d; fragment combination joined by linker; n.d: not detected; read-out: MMP2 IC50
[5] = Figure 5d; fragment combination joined by linker; n.d: not detected; read-out: MMP9 IC50
[6] = mean ± SE; n.d: not detected; Fig. 5e prints no unit, µM; read-out: IC50

O=C(CNC(=O)NC12CC3CC(CC(C3)C1)C2)NCCSCC(=O)NCc1c[nH]nn1 [66+787 Linker 24]
remaining activity (%) (MMP-2; MMP-2; concentration 0.0156 µM): 107.17 | remaining activity (%) (MMP-2; MMP-2; concentration 0.08 µM): 100.74 | remaining activity (%) (MMP-2; MMP-2; concentration 0.39 µM): 89.54 | remaining activity (%) (MMP-2; MMP-2; concentration 1.95 µM): 101.35 | remaining activity (%) (MMP-2; MMP-2; concentration 9.75 µM): 92.40 | remaining activity (%) (MMP-2; MMP-2; concentration 48.76 µM): 87.86 | remaining activity (%) (MMP-2; MMP-2; concentration 243.80 µM): 72.74 | remaining activity (%) (MMP-2; [1]): 41.09 | IC50 (MMP-2; [2]): 861 ± 97.2 µM | remaining enzyme activity (% of control) (MMP-9; MMP-9; concentration 0.08 µM): 99.22 | remaining enzyme activity (% of control) (MMP-9; MMP-9; concentration 0.39 µM): 101.28 | remaining enzyme activity (% of control) (MMP-9; MMP-9; concentration 1.95 µM): 105.60 | remaining enzyme activity (% of control) (MMP-9; MMP-9; concentration 9.75 µM): 109.06 | remaining enzyme activity (% of control) (MMP-9; MMP-9; concentration 48.76 µM): 90.00 | remaining enzyme activity (% of control) (MMP-9; MMP-9; concentration 243.80 µM): 81.70 | remaining enzyme activity (% of control) (MMP-9; [3]): 47.95

O=C(/C=C/CCCCNC(=O)c1cncc(O)c1)CC(=O)NCC12CC3CC(CC(C3)C1)C2 [66_828 12]
IC50 (MMP-2; [4]): 488 µM | IC50 (MMP-9; [5]): 77.4 µM

Cn1c(O)nc2cc(C(=O)NCCCCC=CC(=O)CC(=O)NCCNC(=O)Cn3cnc4c(oc5ccccc54)c3=O)cnc21 [182+826 Linker 12]
remaining activity (%) (MMP-2; MMP-2, concentration 0.13 µM): 97.62 | remaining activity (%) (MMP-2; MMP-2, concentration 0.50 µM): 96.92 | remaining activity (%) (MMP-2; MMP-2, concentration 2.01 µM): 91.66 | remaining activity (%) (MMP-2; MMP-2, concentration 8.03 µM): 85.01 | remaining activity (%) (MMP-2; MMP-2, concentration 128.50 µM): 28.27 | remaining activity (%) (MMP-2; MMP-2, concentration 514.00 µM): 12.65 | IC50 (MMP-2; [2]): 62.3 ± 14 µM | remaining enzyme activity (% of control) (MMP-9; MMP-9, concentration 0.12 µM): 93.35 | remaining enzyme activity (% of control) (MMP-9; MMP-9, concentration 0.49 µM): 105.08 | remaining enzyme activity (% of control) (MMP-9; MMP-9, concentration 1.95 µM): 88.98 | remaining enzyme activity (% of control) (MMP-9; MMP-9, concentration 7.81 µM): 94.00 | remaining enzyme activity (% of control) (MMP-9; MMP-9, concentration 31.25 µM): 85.67 | remaining enzyme activity (% of control) (MMP-9; MMP-9, concentration 125.00 µM): 51.95 | remaining enzyme activity (% of control) (MMP-9; MMP-9, concentration 500.00 µM): 12.28 | IC50 (MMP-9; [6]): 131 ± 24.2 µM

O=C(CNC(=O)NC12CC3CC(CC(C3)C1)C2)NCCOCCOCCNC(=O)c1cncc(O)c1 [66+828 Linker 10]
remaining activity (%) (MMP-2; MMP-2; concentration 0.07 µM): 92.68 | remaining activity (%) (MMP-2; MMP-2; concentration 0.33 µM): 96.27 | remaining activity (%) (MMP-2; MMP-2; concentration 1.67 µM): 86.29 | remaining activity (%) (MMP-2; MMP-2; concentration 8.34 µM): 96.46 | remaining activity (%) (MMP-2; MMP-2; concentration 41.72 µM): 79.41 | remaining activity (%) (MMP-2; MMP-2; concentration 208.60 µM): 61.20 | remaining activity (%) (MMP-2; MMP-2; concentration 1043.00 µM): 17.26 | remaining activity (%) (MMP-2; MMP-2; concentration […]): 100.18 | IC50 (MMP-2; [2]): 293 ± 32.6 µM | remaining enzyme activity (% of control) (MMP-9; MMP-9; concentration 0.08 µM): 104.97 | remaining enzyme activity (% of control) (MMP-9; MMP-9; concentration 0.39 µM): 105.32 | remaining enzyme activity (% of control) (MMP-9; MMP-9; concentration 1.95 µM): 97.80 | remaining enzyme activity (% of control) (MMP-9; MMP-9; concentration 9.75 µM): 93.32 | remaining enzyme activity (% of control) (MMP-9; MMP-9; concentration 48.76 µM): 91.82 | remaining enzyme activity (% of control) (MMP-9; MMP-9; concentration 243.80 µM): 71.42 | remaining enzyme activity (% of control) (MMP-9; [3]): 29.10 | IC50 (MMP-9; [6]): 521 ± 36.5 µM

Cn1c(O)nc2cc(C(=O)NCCNC(=O)Cn3cnc4c(oc5ccccc54)c3=O)cnc21 [182+826 Linker 1]
remaining activity (%) (MMP-2; MMP-2, concentration 0.12 µM): 94.84 | remaining activity (%) (MMP-2; MMP-2, concentration 0.49 µM): 90.90 | remaining activity (%) (MMP-2; MMP-2, concentration 1.95 µM): 93.31 | remaining activity (%) (MMP-2; MMP-2, concentration 7.81 µM): 101.10 | remaining activity (%) (MMP-2; MMP-2, concentration 31.25 µM): 86.65 | remaining activity (%) (MMP-2; MMP-2, concentration 125.00 µM): 86.38 | remaining activity (%) (MMP-2; MMP-2, concentration 500.00 µM): 61.56 | remaining enzyme activity (% of control) (MMP-9; MMP-9, concentration 0.12 µM): 83.90 | remaining enzyme activity (% of control) (MMP-9; MMP-9, concentration 0.49 µM): 96.21 | remaining enzyme activity (% of control) (MMP-9; MMP-9, concentration 1.95 µM): 89.70 | remaining enzyme activity (% of control) (MMP-9; MMP-9, concentration 7.81 µM): 92.69 | remaining enzyme activity (% of control) (MMP-9; MMP-9, concentration 31.25 µM): 77.21 | remaining enzyme activity (% of control) (MMP-9; MMP-9, concentration 125.00 µM): 71.00 | remaining enzyme activity (% of control) (MMP-9; MMP-9, concentration 500.00 µM): 60.44

Cn1c(O)nc2cc(C(=O)NCC34CC5CC(CC(C5)C3)C4)cnc21 [66+826 Linker 1]
remaining activity (%) (MMP-2; MMP-2; concentration 0.12 µM): 104.18 | remaining activity (%) (MMP-2; MMP-2; concentration 0.49 µM): 97.92 | remaining activity (%) (MMP-2; MMP-2; concentration 1.95 µM): 99.61 | remaining activity (%) (MMP-2; MMP-2; concentration 7.81 µM): 91.81 | remaining activity (%) (MMP-2; MMP-2; concentration 31.25 µM): 84.92 | remaining activity (%) (MMP-2; MMP-2; concentration 125.00 µM): 90.24 | remaining activity (%) (MMP-2; MMP-2; concentration 500.00 µM): 77.04 | remaining enzyme activity (% of control) (MMP-9; MMP-9; concentration 0.12 µM): 90.98 | remaining enzyme activity (% of control) (MMP-9; MMP-9; concentration 0.49 µM): 79.87 | remaining enzyme activity (% of control) (MMP-9; MMP-9; concentration 1.95 µM): 80.91 | remaining enzyme activity (% of control) (MMP-9; MMP-9; concentration 7.81 µM): 80.18 | remaining enzyme activity (% of control) (MMP-9; MMP-9; concentration 31.25 µM): 77.01 | remaining enzyme activity (% of control) (MMP-9; MMP-9; concentration 125.00 µM): 59.34 | remaining enzyme activity (% of control) (MMP-9; MMP-9; concentration 500.00 µM): 44.40

Cc1cc(=O)[nH]c(-n2nc(C)c(CCC(=O)NCCNC(=O)c3cncc(O)c3)c2C)n1 [693+828 Linker 1]
remaining activity (%) (MMP-2; MMP-2; concentration 0.0153 µM): 92.49 | remaining activity (%) (MMP-2; MMP-2; concentration 0.08 µM): 86.73 | remaining activity (%) (MMP-2; MMP-2; concentration 0.38 µM): 90.73 | remaining activity (%) (MMP-2; MMP-2; concentration 1.91 µM): 83.36 | remaining activity (%) (MMP-2; MMP-2; concentration 9.54 µM): 76.57 | remaining activity (%) (MMP-2; MMP-2; concentration 47.72 µM): 66.74 | remaining activity (%) (MMP-2; MMP-2; concentration 238.60 µM): 28.54 | remaining activity (%) (MMP-2; MMP-2; concentration 1193.00 µM): 3.05 | IC50 (MMP-2; [2]): 110 ± 13.3 µM | remaining enzyme activity (% of control) (MMP-9; MMP-9; concentration 0.08 µM): 98.15 | remaining enzyme activity (% of control) (MMP-9; MMP-9; concentration 0.38 µM): 101.08 | remaining enzyme activity (% of control) (MMP-9; MMP-9; concentration 1.91 µM): 93.24 | remaining enzyme activity (% of control) (MMP-9; MMP-9; concentration 9.54 µM): 99.31 | remaining enzyme activity (% of control) (MMP-9; MMP-9; concentration 47.72 µM): 78.04 | remaining enzyme activity (% of control) (MMP-9; MMP-9; concentration 238.60 µM): 51.23 | remaining enzyme activity (% of control) (MMP-9; MMP-9; concentration 1193.00 µM): 4.04 | IC50 (MMP-9; [6]): 232 ± 35.2 µM

Cc1cc(=O)[nH]c(-n2nc(C)c(CCC(=O)NCCSCC(=O)NCc3c[nH]nn3)c2C)n1 [693_787 24]
IC50 (MMP-2; [4]): 149 µM | IC50 (MMP-9; [5]): 270 µM

Cc1cc(=O)[nH]c(-n2nc(C)c(CCC(=O)NCc3c[nH]nn3)c2C)n1 [693+787 Linker 1]
remaining activity (%) (MMP-2; MMP-2; concentration 0.0156 µM): 96.66 | remaining activity (%) (MMP-2; MMP-2; concentration 0.08 µM): 98.78 | remaining activity (%) (MMP-2; MMP-2; concentration 0.39 µM): 101.13 | remaining activity (%) (MMP-2; MMP-2; concentration 1.95 µM): 92.82 | remaining activity (%) (MMP-2; MMP-2; concentration 9.75 µM): 86.30 | remaining activity (%) (MMP-2; MMP-2; concentration 48.76 µM): 75.55 | remaining activity (%) (MMP-2; MMP-2; concentration 243.80 µM): 47.37 | remaining activity (%) (MMP-2; [1]): 8.68 | IC50 (MMP-2; [2]): 204 ± 37.3 µM | remaining enzyme activity (% of control) (MMP-9; MMP-9; concentration 0.08 µM): 91.27 | remaining enzyme activity (% of control) (MMP-9; MMP-9; concentration 0.39 µM): 99.91 | remaining enzyme activity (% of control) (MMP-9; MMP-9; concentration 1.95 µM): 99.61 | remaining enzyme activity (% of control) (MMP-9; MMP-9; concentration 9.75 µM): 100.27 | remaining enzyme activity (% of control) (MMP-9; MMP-9; concentration 48.76 µM): 85.00 | remaining enzyme activity (% of control) (MMP-9; MMP-9; concentration 243.80 µM): 58.59 | remaining enzyme activity (% of control) (MMP-9; [3]): 5.52 | IC50 (MMP-9; [6]): 312 ± 67.1 µM
